The target in data set [1] is T1, Aβ40 (Homo sapiens, UniProt P05067).
T1 construct: Aβ40 (TFA salt) was synthesized by Fmoc-based solid phase synthesis (SPPS); made in house; host or cells: chemical synthesis (Fmoc SPPS on Tentagel R PHB resin)
The data set is described as follows: MTT reduction assay: IC50 of inhibitory effect on cell-damaging amyloid self-assembly of Aβ40 (PC12 cells). It counts as cell-based. How it is done:
(§1) Assessment of Cell Damage by MTT Reduction Assay
(§2) Both cell lines were cultured and plated in 96-well plates as described. […] Following incubation with the cells for ˜20 h (37° C., humidified atmosphere with 5% CO2), the MTT reduction assay was used to assess cell damage/metabolic activity as previously described.
In general terms: Formazan colour is commonly taken as a measure of viable cells.

A short description of data set [2]: Peptide stability in human plasma (in vitro). It counts as in vitro ADME. The following applies: human blood plasma, 200 μM peptide, 37° C. Here is the method: Peptide Stability in Human Plasma (In Vitro)
Peptides were dissolved in human blood plasma (obtained from voluntary healthy donors) at a concentration of 200 μM and incubated at 37° C. for various time intervals. Following quenching (1/1) with aqueous trichloroacetic acid (10%), solutions were incubated on ice for 10 min, subjected to centrifugation to precipitate plasma proteins (20200 g; 4 min), and the supernatants were mixed (1/2) with a solution consisting of 80% HPLC buffer B and 20% HPLC buffer A (see below). To quantify intact peptide at different time points, solutions containing the supernatants were analyzed by RP-HPLC (detection at 214 nm) by using a Nucleosil 100 C18 column (Grace) (length 33 mm length, ID 8 mm, 7 μm particle size) with a flow rate of 2.0 ml/min and eluting buffers A, 0.058% (v/v) TFA in water, and B, 0.05% (v/v) TFA in 90% (v/v) CH3CN in water. The elution gradient was 10-90% B in A over 8 min; this step was followed by a 90-10% B in A over 3 min step to establish starting conditions. HPLC fractions were collected, lyophilized, and analyzed by MALDI-TOF-MS using a Bruker Daltonik MALDI-TOF MS instrument.

Data set [3] has as its target recombinant human neprilysin (NEP) (Homo sapiens, UniProt P08473). The following applies: peptide 100 μM, NEP 500 ng/ml, pH 6.5, 37° C.
Excerpt: Peptide Stability Toward Degradation by Human Neprilysin (In Vitro)
At indicated time points aliquots were quenched (1/1) with aqueous trichloroacetic acid (10%) and solutions were subjected to HPLC analysis and HPLC fractions were collected and analyzed by MALDI-TOF-MS as described under “Peptide stability in human plasma” (above).
The next data set deals with hCMEC/D3 cells. Kind of data set: Human BBB Transwell permeability assay (in vitro). The conditions noted are these: hCMEC monolayer on Transwell; peptides 10 μM, Lucifer yellow 20 μM; mean (±SEM).
Data set [4] deals with T2, IAPP (Homo sapiens, UniProt P10997).
T2 sequence (P10997 34-70 limits assumed): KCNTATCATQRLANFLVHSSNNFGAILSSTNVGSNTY
The data set is described as follows: MTT reduction assay: IC50 of inhibitory effect on cell-damaging amyloid self-assembly of IAPP (RIN5fm cells). How it is done:
as §1, §2

Data set [5] addresses T1, Aβ40. The data set is described as follows: Fluorescence spectroscopic titration of Dac-Aβ40. The format is binding. The conditions noted are these: Dac-Aβ40 10 nM, pH 7.4. Here is the method: (§3) Fluorescence Spectroscopic Titration Studies
(§4) A JASCO FP-6500 fluorescence spectrophotometer was used for the fluorescence spectroscopic titrations, which were performed by using previously described experimental protocols. […] App. […] Briefly, freshly made stock solutions of peptides and fluorescently labeled analogs in HFIP were used. Measurements were performed in 10 mM sodium phosphate buffer, pH 7.4 ([…]) at room temperature within 2-5 min following solution preparation. […] App. Kds were estimated using 1/1 binding models as previously described. […] KdDs are means (+SD) from three binding curves.

The target in data set [6] is T2, IAPP. The data set is described as follows: Fluorescence spectroscopic titration of Fluos-IAPP. It counts as binding. Also on record: IAPP was synthesized by SPPS and the Fmoc-strategy on RINK resin, subjected to air oxidation and purified by RP-HPLC; made in house; host or cells: chemical synthesis (Fmoc SPPS on RINK resin, air oxidation). The following applies: Fluos-IAPP 5 nM, pH 7.4. Here is the method: as §3, §4

The mark [7] stands for this setting: RP-HPLC and MALDI-TOF-MS, read-out: Half-life time in human plasma.
Setting [8] is: Aβ40 500 nM, 72 h-aged solutions, PC12 cells, MTT reduction, means (±SD) from 3-4 titration assays, read-out: IC50 (±SD) (nM) Aβ40 inhibition.

Where two headings read alike, the source gives them in different places. Where a SMILES comes first, the peptide text is derived from it. Bridges are numbered along the chain shown (N, C = ends). [ ]: non-standard residue; d: D form. The star is where a group is joined. 5FAM = O=C1OC2(c3ccc(O)cc3Oc3cc(O)ccc32)c2ccc(C(=O)*)cc21; NMeI = CC[C@H](C)[C@H](NC)C(=O)O; Sar = CNCC(=O)O Some results are limits rather than exact numbers.

T1 sequence (P05067 672-711): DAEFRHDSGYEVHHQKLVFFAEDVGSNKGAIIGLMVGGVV
Sequence of recombinant human neprilysin (NEP) (P08473 whole entry): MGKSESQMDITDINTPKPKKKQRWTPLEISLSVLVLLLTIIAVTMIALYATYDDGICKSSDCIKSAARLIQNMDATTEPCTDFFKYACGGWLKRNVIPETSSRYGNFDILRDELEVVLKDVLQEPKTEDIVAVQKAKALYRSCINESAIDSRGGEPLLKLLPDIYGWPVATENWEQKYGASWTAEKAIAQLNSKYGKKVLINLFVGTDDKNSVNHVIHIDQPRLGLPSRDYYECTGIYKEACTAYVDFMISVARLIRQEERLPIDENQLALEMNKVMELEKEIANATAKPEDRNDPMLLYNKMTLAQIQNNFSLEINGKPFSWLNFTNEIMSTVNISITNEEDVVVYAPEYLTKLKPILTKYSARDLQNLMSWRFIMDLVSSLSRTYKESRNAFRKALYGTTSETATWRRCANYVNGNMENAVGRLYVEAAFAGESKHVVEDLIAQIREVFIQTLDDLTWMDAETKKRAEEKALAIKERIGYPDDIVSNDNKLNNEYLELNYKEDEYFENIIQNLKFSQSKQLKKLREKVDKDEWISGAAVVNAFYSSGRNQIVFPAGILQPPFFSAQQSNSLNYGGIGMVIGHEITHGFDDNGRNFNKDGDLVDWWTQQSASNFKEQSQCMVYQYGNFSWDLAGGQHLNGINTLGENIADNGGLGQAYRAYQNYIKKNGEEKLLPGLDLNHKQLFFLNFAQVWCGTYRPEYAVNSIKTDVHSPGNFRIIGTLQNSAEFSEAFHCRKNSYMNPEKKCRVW
Description for hCMEC/D3 cells: Human BBB Transwell Permeability Assay (In Vitro)
Human cerebral microvascular endothelial (hCMEC/D3) cells (Merck) were cultured in collagen type I-coated dishes in EndoGro-MV complete culture media kit supplemented with 1 ng/mL fibroblast growth factor-2 (FGF-2) (all reagents from Merck) (at 37° C. and 5% CO2). […] The Transwell permeability assay was then performed based on a previously established assay using 24-well plates (Sigma-Aldrich) containing 6.5 mm Transwell inserts (0.4 μm pore polycarbonate membrane (Corning)) as follows:
hCMEC/D3 cells were grown in endothelial cell medium (ECM), containing EndoGro-MV complete media, 10% fetal bovine serum (FBS), 1% penicillin-streptamycine (P/S), and 1 ng/mL FGF-2 on the membranes of the Transwell inserts (2×10^5 cells/insert) (37° C. and 5% CO2) until full confluency was reached (normally after 5-7 days of culture). Confluency and BBB-type tightness was verified by TEER analysis; TEER values of 60-80 Ωcm^2 were obtained. The upper and lower chambers then were reconstituted with 200 μl and 800 μl, respectively, of ECM containing 2% FBS. The N-terminal fluorescein-labeled 12 amino acid-long peptide [sequence]-amide (Fluos-Trfb) known to readily cross the BBB via binding to the transferrin receptor, was used as a positive control for BBB permeability in this model.
As a reference point for the maximum fluorescence intensity, 100 μl of medium from the upper chamber at 0 h was also transferred and quantified. […] Lucifer yellow in the lower chamber was quantified by measuring the fluorescence at 530 nm (excitation at 485 nm). Relative permeability (FIG. 3f) was calculated by dividing the fluorescence value of the aliquot from the lower chamber at each time point by the fluorescence value of the 0 h-lower chamber aliquot.
Reported Papp values are means (±SEM) from at least 3 transport assays (each of them performed in triplicates).

The term Papp A→B denotes how fast a substance crosses the layer from the apical side. The low end stands for poor permeation, the high end for ready permeation. The molecule `CC[C@H](C)[C@H]1C(=O)NCC(=O)NCC(=O)N[C@@H](C(N)=O)CSSC[C@@H](NC(=O)c2ccc3c(c2)C(=O)OC32c3ccc(O)cc3Oc3cc(O)ccc32)C(=O)NCC(=O)N[C@H](Cc2ccccc2)C(=O)N[C@H](CC(C)C)C(=O)NCC(=O)NCC(=O)N[C@H](CCCNC(=N)N)C(=O)N[C@H](CCCNC(=N)N)C(=O)N[C@H](CCCNC(=N)N)C(=O)NCC(=O)N[C@H](Cc2ccccc2)C(=O)N(C)CC(=O)NCC(=O)N1C` [Fluos-2e] (5FAM-[dC]G[dF][dL]GG[dR][dR][dR]G[dF][Sar]G[NMeI]GG[dC]-NH2; disulfide 1-17; N-terminus assumed) gave a Papp A→B of 146 nm/s.

In turn, `CSCC[C@H](NC(=O)[C@@H]1CCCN1C(=O)[C@@H]1CCCN1C(=O)[C@H](CCCNC(=N)N)NC(=O)[C@H](Cc1c[nH]cn1)NC(=O)[C@@H](NC(=O)c1ccc2c(c1)C(=O)OC21c2ccc(O)cc2Oc2cc(O)ccc21)[C@@H](C)O)C(=O)N[C@@H](Cc1c[nH]c2ccccc12)C(=O)N[C@@H](CO)C(=O)N1CCC[C@H]1C(=O)N[C@H](C(=O)N[C@@H](Cc1c[nH]c2ccccc12)C(=O)N1CCC[C@H]1C(N)=O)C(C)C` [Fluos-Trfb, reference compound] (5FAM-THRPPMWSPVWP-NH2; N-terminus assumed) yielded a Papp A→B of 208 nm/s.

As usually defined, the IC50 is the point on the concentration scale where inhibition reaches its midpoint. Consider `CC[C@H](C)[C@H]1C(=O)NCC(=O)NCC(=O)N[C@@H](C(N)=O)CSSC[C@@H](N)C(=O)NCC(=O)N[C@H](Cc2ccccc2)C(=O)N[C@H](CC(C)C)C(=O)NCC(=O)NCC(=O)N[C@H](CCCNC(=N)N)C(=O)N[C@H](CCCNC(=N)N)C(=O)N[C@H](CCCNC(=N)N)C(=O)NCC(=O)N[C@H](Cc2ccccc2)C(=O)N(C)CC(=O)NCC(=O)N1C` [Peptide 2e] (H-[dC]G[dF][dL]GG[dR][dR][dR]G[dF][Sar]G[NMeI]GG[dC]-NH2; disulfide 1-17), for which inhibition on Aβ40 [1] was half-maximal at 542 nM (IC50). In addition, the half-life at 200 μM in data set [2] (setting [7]) is above 11 h. Moreover, the “Resistance to degradation by human neprilysin” value in data set [3] is given as “fully resistant to degradation”.

In the case of Lucifer yellow, in the data set on hCMEC/D3 cells, the “Apparent permeability (Papp) at 2 h” value is 5.3×10^−6 (±2.7) cm/s.

In the case of `CC[C@H](C)[C@H]1C(=O)NCC(=O)NCC(=O)N[C@H](C(N)=O)CSSC[C@H](N)C(=O)NCC(=O)N[C@H](Cc2ccccc2)C(=O)N[C@H](CC(C)C)C(=O)NCC(=O)NCC(=O)N[C@H](CCCNC(=N)N)C(=O)N[C@H](CCCNC(=N)N)C(=O)N[C@H](CCCNC(=N)N)C(=O)NCC(=O)N[C@H](Cc2ccccc2)C(=O)N(C)CC(=O)NCC(=O)N1C` [Peptide 2d] (H-CG[dF][dL]GG[dR][dR][dR]G[dF][Sar]G[NMeI]GGC-NH2; disulfide 1-17), the IC50 on Aβ40 [1] (setting [8]) was 703 nM. Further, in data set [2] (setting [7]), the half-life at 200 μM was 1 to 2 h.

With `CC[C@H](C)[C@H]1C(=O)NCC(=O)NCC(=O)N[C@H](C(N)=O)CSSC[C@H](N)C(=O)NCC(=O)N[C@@H](Cc2ccccc2)C(=O)N[C@@H](CC(C)C)C(=O)NCC(=O)NCC(=O)N[C@@H](CCCNC(=N)N)C(=O)N[C@@H](CCCNC(=N)N)C(=O)N[C@@H](CCCNC(=N)N)C(=O)NCC(=O)N[C@@H](Cc2ccccc2)C(=O)N(C)CC(=O)NCC(=O)N1C` [Peptide 2b] (H-CGFLGGRRRGF[Sar]G[NMeI]GGC-NH2; disulfide 1-17), the IC50 on Aβ40 [1] turned out to be 654 nM; at IAPP [4] it was 0.426 µM. Further, the “app. Kd of interaction with N-terminal fluorescently labeled Aβ40” value at Aβ40 [5] is given as “mid-nanomolar”. In addition, the half-life at 200 μM in data set [2] (read-out: t1/2 in human plasma) is around 0.75 h. For the same molecule, the “app. Kd of interaction with N-terminal fluorescently labeled IAPP” value at IAPP [6] is “mid-nanomolar”.

Turning to `CC[C@H](C)[C@H]1C(=O)N[C@@H](CC(C)C)C(=O)N[C@@H](CO)C(=O)N[C@H](C(N)=O)CSSC[C@H](N)C(=O)N[C@@H](C)C(=O)N[C@@H]([C@@H](C)O)C(=O)N[C@@H](CCC(N)=O)C(=O)N[C@@H](CCCNC(=N)N)C(=O)N[C@@H](CC(C)C)C(=O)N[C@@H](C)C(=O)N[C@@H](CC(N)=O)C(=O)N[C@@H](Cc2ccccc2)C(=O)N[C@@H](CC(C)C)C(=O)N[C@@H](C(C)C)C(=O)N[C@@H](Cc2c[nH]cn2)C(=O)N[C@@H](CCCNC(=N)N)C(=O)N[C@@H](CCCNC(=N)N)C(=O)N[C@@H](CCCNC(=N)N)C(=O)N[C@@H](CC(N)=O)C(=O)N[C@@H](Cc2ccccc2)C(=O)N(C)CC(=O)N[C@@H](C)C(=O)N1C` [Peptide 1a] (H-CATQRLANFLVHRRRNF[Sar]A[NMeI]LSC-NH2; disulfide 1-23; N-terminus assumed), the “app. Kd of interaction with N-terminal fluorescently labeled Aβ40” value on Aβ40 [5] is given as “mid-nanomolar”. The “app. Kd of interaction with N-terminal fluorescently labeled IAPP” value on IAPP [6] is “mid-nanomolar”.

On to `CC[C@H](C)[C@H]1C(=O)NCC(=O)NCC(=O)N[C@H](C(N)=O)CSSC[C@H](N)C(=O)NCC(=O)N[C@@H](Cc2ccccc2)C(=O)N[C@@H](CC(C)C)C(=O)NCC(=O)NCC(=O)N[C@H](CCCNC(=N)N)C(=O)N[C@H](CCCNC(=N)N)C(=O)N[C@H](CCCNC(=N)N)C(=O)NCC(=O)N[C@@H](Cc2ccccc2)C(=O)N(C)CC(=O)NCC(=O)N1C` [Peptide 2c] (H-CGFLGG[dR][dR][dR]GF[Sar]G[NMeI]GGC-NH2; disulfide 1-17), for which the IC50 on Aβ40 [1] (setting [8]) is 204 nM. In addition, in data set [2] (setting [7]), the half-life at 200 μM lay in the range of 1 to 2 h.

As for `CC[C@H](C)[C@H]1C(=O)N[C@@H](CC(C)C)C(=O)N[C@@H](CO)C(=O)N[C@H](C(N)=O)CSSC[C@H](N)C(=O)N[C@@H](CC(N)=O)C(=O)N[C@@H](Cc2ccccc2)C(=O)N[C@@H](CC(C)C)C(=O)N[C@@H](C(C)C)C(=O)N[C@@H](Cc2c[nH]cn2)C(=O)N[C@@H](CCCNC(=N)N)C(=O)N[C@@H](CCCNC(=N)N)C(=O)N[C@@H](CCCNC(=N)N)C(=O)N[C@@H](CC(N)=O)C(=O)N[C@@H](Cc2ccccc2)C(=O)N(C)CC(=O)N[C@@H](C)C(=O)N1C` [Peptide 2a] (H-CNFLVHRRRNF[Sar]A[NMeI]LSC-NH2; disulfide 1-17; N-terminus assumed), the “Potency against IAPP cytotoxic self-assembly relative to 1a” value at IAPP [4] (ratio of IC50s) is around 3 fold. Further, at Aβ40 [5], the “app. Kd of interaction with N-terminal fluorescently labeled Aβ40” value is listed as “mid-nanomolar”. For the same molecule, the “app. Kd of interaction with N-terminal fluorescently labeled IAPP” value at IAPP [6] is on record as “mid-nanomolar”.

The values are drawn from patent US11498943B2, “Amyloid inhibitory peptides” (TECHNISCHE UNIVERSITÄT MÜNCHEN, priority 2018, dated 2022).
